A short description of the data set: Moisture absorption observed during XRPD test. Format: physicochemical. The protocol: Compound E Form A was obtained from acetone system. Limited solids were observed after stirring at 5° C. […] The suspension was transferred to −20° C., but limited solids were still observed. Anti-solvent (n-heptane) was added and the sample was transferred to 5° C. However, gel was obtained.

For `C=CC(=O)N1CCN(c2nc(OC[C@@H]3CCCN3C)nc3c(F)c(-c4nc(N)cc(C)c4C(F)(F)F)c(Cl)cc23)[C@@H](C)C1.CS(=O)(=O)O` (atropisomer, axis not shown) [Compound E Form A], the “Moisture behaviour of the sample during XRPD test” value was “tended to absorb moisture and turn to liquid”.

The values are drawn from patent US12565485B2, “Solid forms of 1-((S)-4-((R)-7-(6-amino-4-methyl-3-(trifluoromethyl)pyridin-2-yl)-6-chloro-8-fluoro-2-(((s)-1-methylpyrrolidin-2-yl)methoxy)quinazolin-4-yl)-3-methylpiperazin-1-yl)prop-2-en-1-one” (Genentech, Inc., priority 2022, dated 2026).
